Test system: T1, histamine H1 receptor
T1 construct: gene HRH1; native receptor in isolated ileal segments
Assay: organ bath, antagonism of histamine-induced contraction of isolated ileum; double reciprocal analysis
Set-up: species or system Suncus murinus

SMILES: O=C(O)COCCN1CCN(C(c2ccccc2)c2ccc(Cl)cc2)CC1 (stereo not shown) [cetirizine]
- Kb: 8.4 pKb
